Data: paper PMC5668067, “Phase I dose-escalation study of the c-Met tyrosine kinase inhibitor SAR125844 in Asian patients with advanced solid tumors, including patients with MET-amplified gastric cancer” (Oncotarget, 2017)
Like-named read-outs stand apart in the source and are kept apart here.

Assay: phase I pharmacokinetics in blood (dried blood spot, LC-MS/MS, noncompartmental analysis)
Format: in vivo, human
Settings: for fold increase in AUC0–168: 2.19-fold increase in dose (260 to 570 mg/m^2); for Cmax: blood; for AUC(0-t): read-out: AUC0–168
Method: Blood samples for pharmacokinetic analysis were acquired using dried blood-spot technology on days 1 and 22 of cycle 1 at several time points before, during, and after infusion (up to 168 hours after administration). Drug concentrations were determined by a validated method of liquid chromatography and tandem mass spectrometry (limit of quantification 2 ng/mL). Pharmacokinetic parameters were calculated using a noncompartmental analysis and included the maximum observed blood concentration (Cmax), AUC from 0 to infinity, AUC0–168, CL, CL after repeated administrations (CLss), volume of distribution at steady state (Vss), and the half-life associated with the terminal slope (t1/2z).

[1] = human, whole blood (dried blood spot), intravenous, 260 mg/m2, 260 mg/m^2, cycle 1 Day 22, N = 2, mean
[2] = human, whole blood (dried blood spot), intravenous, 340 mg/m2, 340 mg/m^2, cycle 1 Day 1, N = 2, mean
[3] = human, whole blood (dried blood spot), intravenous, 340 mg/m2, 340 mg/m^2, cycle 1 Day 22, N = 3, mean ± SD
[4] = human, whole blood (dried blood spot), intravenous, 440 mg/m2, 440 mg/m^2, cycle 1 Day 1, n = 2, mean
[5] = human, whole blood (dried blood spot), intravenous, 440 mg/m2, 440 mg/m^2, cycle 1 Day 22, N = 3, mean ± SD
[6] = human, whole blood (dried blood spot), intravenous, 570 mg/m2, 570 mg/m^2, cycle 1 Day 1, n = 20, mean ± SD
[7] = human, whole blood (dried blood spot), intravenous, 570 mg/m2, 570 mg/m^2, cycle 1 Day 22, N = 17, mean ± SD

O=C(NCCN1CCOCC1)Nc1nc2ccc(Sc3nnc4ccc(-c5ccc(F)cc5)nn34)cc2s1 [SAR125844]
fold increase in AUC0–168 (day 1): 3.00 fold
fold increase in AUC0–168 (day 22): 2.69 fold
accumulation between days 1 and 22 (four repeated once-weekly infusions): no accumulation
Cmax (human, whole blood (dried blood spot), intravenous, 260 mg/m2, 260 mg/m^2, cycle 1 Day 1, N = 6, mean ± SD): 4140 ± 1070 ng/mL
AUC(0-t) (human, whole blood (dried blood spot), intravenous, 260 mg/m2, 260 mg/m^2, cycle 1 Day 1, n = 5, mean ± SD): 11800 ± 2960 ng·h/mL
clearance (human, whole blood (dried blood spot), intravenous, 260 mg/m2, 260 mg/m^2, cycle 1 Day 1, n = 5, mean ± SD, read-out: CL (converted)): 608 mL/min
Vd (human, whole blood (dried blood spot), intravenous, 260 mg/m2, 260 mg/m^2, cycle 1 Day 1, n = 5, mean ± SD, read-out: Vss): 232 ± 57.5 L
half-life (human, whole blood (dried blood spot), intravenous, 260 mg/m2, 260 mg/m^2, cycle 1 Day 1, n = 5, mean ± SD, read-out: t1/2z (converted)): 12.6 ± 6.05 h
AUC [1]: 12600 ng·h/mL
Cmax [1]: 3550 ng/mL
AUC(0-t) [1]: 12700 ng·h/mL
clearance (human, whole blood (dried blood spot), intravenous, 260 mg/m2, 260 mg/m^2, cycle 1 Day 22, N = 2, mean, read-out: CL (converted)): 533 mL/min
Vd (human, whole blood (dried blood spot), intravenous, 260 mg/m2, 260 mg/m^2, cycle 1 Day 22, N = 2, mean, read-out: Vss): 186 L
half-life (human, whole blood (dried blood spot), intravenous, 260 mg/m2, 260 mg/m^2, cycle 1 Day 22, N = 2, mean, read-out: t1/2z (converted)): 12.6 h
AUC (human, whole blood (dried blood spot), intravenous, 260 mg/m2, AUC from 0 to infinity, 260 mg/m^2, cycle 1 Day 1, n = 5, mean ± SD): 11800 ± 2950 ng·h/mL
AUC [2]: 16400 ng·h/mL
Cmax [2]: 4290 ng/mL
AUC(0-t) [2]: 16400 ng·h/mL
clearance (human, whole blood (dried blood spot), intravenous, 340 mg/m2, 340 mg/m^2, cycle 1 Day 1, N = 2, mean, read-out: CL (converted)): 565 mL/min
Vd (human, whole blood (dried blood spot), intravenous, 340 mg/m2, 340 mg/m^2, cycle 1 Day 1, N = 2, mean, read-out: Vss): 246 L
half-life (human, whole blood (dried blood spot), intravenous, 340 mg/m2, 340 mg/m^2, cycle 1 Day 1, N = 2, mean, read-out: t1/2z (converted)): 12.9 h
AUC [3]: 16500 ± 2390 ng·h/mL
Cmax [3]: 4700 ± 976 ng/mL
AUC(0-t) [3]: 16500 ± 2390 ng·h/mL
clearance (human, whole blood (dried blood spot), intravenous, 340 mg/m2, 340 mg/m^2, cycle 1 Day 22, N = 3, mean ± SD, read-out: CL (converted)): 557 mL/min
Vd (human, whole blood (dried blood spot), intravenous, 340 mg/m2, 340 mg/m^2, cycle 1 Day 22, N = 3, mean ± SD, read-out: Vss): 291 ± 52.6 L
half-life (human, whole blood (dried blood spot), intravenous, 340 mg/m2, 340 mg/m^2, cycle 1 Day 22, N = 3, mean ± SD, read-out: t1/2z (converted)): 20.6 ± 4.69 h
Cmax (human, whole blood (dried blood spot), intravenous, 440 mg/m2, 440 mg/m^2, cycle 1 Day 1, N = 3, mean ± SD): 6390 ± 1010 ng/mL
AUC [4]: 22000 ng·h/mL
AUC(0-t) [4]: 22100 ng·h/mL
clearance (human, whole blood (dried blood spot), intravenous, 440 mg/m2, 440 mg/m^2, cycle 1 Day 1, n = 2, mean, read-out: CL (converted)): 530 mL/min
Vd (human, whole blood (dried blood spot), intravenous, 440 mg/m2, 440 mg/m^2, cycle 1 Day 1, n = 2, mean, read-out: Vss): 202 L
half-life (human, whole blood (dried blood spot), intravenous, 440 mg/m2, 440 mg/m^2, cycle 1 Day 1, n = 2, mean, read-out: t1/2z (converted)): 12.1 h
AUC [5]: 25400 ± 5300 ng·h/mL
Cmax [5]: 5840 ± 1420 ng/mL
AUC(0-t) [5]: 25300 ± 5220 ng·h/mL
clearance (human, whole blood (dried blood spot), intravenous, 440 mg/m2, 440 mg/m^2, cycle 1 Day 22, N = 3, mean ± SD, read-out: CL (converted)): 503 mL/min
Vd (human, whole blood (dried blood spot), intravenous, 440 mg/m2, 440 mg/m^2, cycle 1 Day 22, N = 3, mean ± SD, read-out: Vss): 490 ± 366 L
half-life (human, whole blood (dried blood spot), intravenous, 440 mg/m2, 440 mg/m^2, cycle 1 Day 22, N = 3, mean ± SD, read-out: t1/2z (converted)): 27.5 ± 8.24 h
Cmax (human, whole blood (dried blood spot), intravenous, 570 mg/m2, 570 mg/m^2, cycle 1 Day 1, N = 21, mean ± SD): 6570 ± 1680 ng/mL
AUC [6]: 36200 ± 11800 ng·h/mL
AUC(0-t) [6]: 36100 ± 11800 ng·h/mL
clearance (human, whole blood (dried blood spot), intravenous, 570 mg/m2, 570 mg/m^2, cycle 1 Day 1, n = 20, mean ± SD, read-out: CL (converted)): 463 mL/min
Vd (human, whole blood (dried blood spot), intravenous, 570 mg/m2, 570 mg/m^2, cycle 1 Day 1, n = 20, mean ± SD, read-out: Vss): 241 ± 55.3 L
half-life (human, whole blood (dried blood spot), intravenous, 570 mg/m2, 570 mg/m^2, cycle 1 Day 1, n = 20, mean ± SD, read-out: t1/2z (converted)): 22.8 ± 9.47 h
AUC [7]: 35100 ± 15000 ng·h/mL
Cmax [7]: 6330 ± 1270 ng/mL
AUC(0-t) [7]: 35100 ± 14900 ng·h/mL
clearance (human, whole blood (dried blood spot), intravenous, 570 mg/m2, 570 mg/m^2, cycle 1 Day 22, N = 17, mean ± SD, read-out: CL (converted)): 482 mL/min
Vd (human, whole blood (dried blood spot), intravenous, 570 mg/m2, 570 mg/m^2, cycle 1 Day 22, N = 17, mean ± SD, read-out: Vss): 287 ± 105 L
half-life (human, whole blood (dried blood spot), intravenous, 570 mg/m2, 570 mg/m^2, cycle 1 Day 22, N = 17, mean ± SD, read-out: t1/2z (converted)): 21.2 ± 4.94 h
half-life (human, whole blood (dried blood spot), intravenous, 570 mg/m2, at the RD (570 mg/m^2), read-out: elimination half-life (converted)): ~21 h
Vd (human, whole blood (dried blood spot), intravenous, 570 mg/m2, at the RD (570 mg/m^2), read-out: volume of distribution at steady state): ~253 L
clearance (qualitative): medium
effect of dose on total body clearance (CL) (statistical analysis, P = 0.25): no significant effect
effect of dose on CL at steady state (CLs) (statistical analysis, P = 0.79): no significant effect
